Results taken from patent US7408024B2, “Somatostatin antagonists” (The Administrators of the Tulane Educational Fund, priority 2001, dated 2008).
Where a SMILES comes first, the peptide text is derived from it. Bridges are numbered along the chain shown (N, C = ends). [ ]: non-standard residue; d: D form. Phe(4-Cl) = N[C@@H](Cc1ccc(Cl)cc1)C(=O)O; dNMeW = CN[C@H](Cc1c[nH]c2ccccc12)C(=O)O; 2Nal = N[C@@H](Cc1ccc2ccccc2c1)C(=O)O; 3Pal = N[C@@H](Cc1cccnc1)C(=O)O; NMeK = CN[C@@H](CCCCN)C(=O)O; NMeC = CN[C@@H](CS)C(=O)O

Assays:
hsst2 = target: T1, hsst2 (Homo sapiens, UniProt P30874); test: Radioligand binding, cloned human sst2 receptor (CHO-K1 membranes); conditions: [125I]MK-678, CHO-K1 cell membranes; single values = one binding experiment; read-out: K1 ± SEM hsst2
T1 construct: each containing the entire coding region of the full-length receptors; expressed in transfected cells
Description: (§1) The genomic clones containing the human somatostatin receptors (hsstr1-5) (Yamada, Y., et al. al., Proc. Natl. Acad. Sci. USA. 1992, 89, 251-255; Yasuda, K., et al., J. Biol. Chem. 1992, 267, 20422-20428; Yamada, Y., et al., Mol. Pharmacol. 1992, 42, 2136-2142; Rohrer, L., et al., Proc. Natl. Acad. Sci. USA. 1993, 90, 4196-4200.), were kindly provided by Dr. Graeme I. Bell (University of Chicago). The hsstr1, hsstr2, hsstr3, hsstr4 and hsstr5 cDNAs were isolated as a 1.5-kb PstI-XmnI fragment, 1.7-kb BamHI-HindIII fragment, 2.0-kb NcoI-HindIII fragment, 1.4-kb NheI-NdeI fragment, and a 1.2-kb HindIII-XbaI fragment, respectively, each containing the entire coding region of the full-length receptors. These fragments were independently subdloned into the corresponding restriction endonuclease sites in the mammalian expression vector pCMV5, downstream from the human cytomegalovirus (CMV) promoter, to produce the expression plasmids pCMV5/hsstr1, pCMV5/hsstr2, pCMV5/hsstr3, pCMV5/hsstr4 and pCMV5/hsstr5. For transfection into CHO-K1 cells, a plasmid, pRSV-neo (American Type Culture Collection, Rockville, Md.), carrying the neomycin mammalian cell selectable marker was added.
(§2) Transfections were performed by the calcium phosphate method. CHO-K1 cells are maintained in α-minimum essential medium (α-MEM; Gibco) supplemented with 10% fetal calf serum and transfected with each of the expression plasmids using calcium phosphate precipitation. Clones that had inherited the expression plasmid were selected in α-MEM supplemented with 500 μg mL^−1 of geneticin (G418; Gibco). Independent CHO-K1 clones were picked by glass-ring cloning and expanded in culture in the selective media. Membranes were prepared from the isolated clones and hsstr expression was initially assessed for binding with [^125I]Tyr^11-SRIF and [^125]IMK-678 (for sstr2).
(§3) Cell membranes of the 5 receptor types were obtained from homogenates (Polytron setting 6, 15 sec) of the corresponding CHO-K1 cells, in ice-cold Tris-HCl (50 mM) and centrifuged (39000 g, 10 min×2), with an intermediate resuspension in fresh buffer. The final pellets are resuspended in Tris-HCl (10 mM) for assay. Aliquots of the membranes are incubated (30 min at 37° C.) with 0.05 nM [^125I]Tyr^11-SRIF (types 1,3,4,5) or [^125I]MK-678 (type 2) in 50 mM HEPES (pH 7.4) containing BSA (10 mg mL^−1); MgCl2 (5 mM), Trasylol (200 kIU mL^−1), bacitracin (0.02 mg mL^−1), and phenylmethanesulfonyl fluoride (0.02 mg mL^−1). The final assay volume is 0.3 mL and incubations are terminated by rapid filtration through GF/C filters pre-soaked in 0.3% poly(ethylenimine) using a Brandel rapid filtration module. Each tube and filter is then washed with aliquots of cold buffer (3×5 mL).
(§4) Specific binding is. defined as the total radioligand bound minus that bound in the presence of 1.0 μM SRIF.

hsst3 = target: T2, hsst3 (Homo sapiens, UniProt P32745); test: Radioligand binding, cloned human sst3 receptor (CHO-K1 membranes); conditions: [125I]Tyr11-SRIF, CHO-K1 cell membranes; single values = one binding experiment; read-out: K1 ± SEM hsst3
T2 construct: each containing the entire coding region of the full-length receptors; expressed in transfected cells
Description: as §1, §2, §3, §4

hsst4 = target: T3, hsst4 (Homo sapiens, UniProt P31391); test: Radioligand binding, cloned human sst4 receptor (CHO-K1 membranes); conditions: [125I]Tyr11-SRIF, CHO-K1 cell membranes; single values = one binding experiment; read-out: K1 ± SEM hsst4
T3 construct: each containing the entire coding region of the full-length receptors; expressed in transfected cells
Description: as §1, §2, §3, §4

hsst5 = target: T4, hsst5 (Homo sapiens, UniProt P35346); test: Radioligand binding, cloned human sst5 receptor (CHO-K1 membranes); conditions: [125I]Tyr11-SRIF, CHO-K1 cell membranes; single values = one binding experiment; read-out: K1 ± SEM hsst5
T4 construct: each containing the entire coding region of the full-length receptors; expressed in transfected cells
Description: as §1, §2, §3, §4

T4 sequence (P35346 whole entry): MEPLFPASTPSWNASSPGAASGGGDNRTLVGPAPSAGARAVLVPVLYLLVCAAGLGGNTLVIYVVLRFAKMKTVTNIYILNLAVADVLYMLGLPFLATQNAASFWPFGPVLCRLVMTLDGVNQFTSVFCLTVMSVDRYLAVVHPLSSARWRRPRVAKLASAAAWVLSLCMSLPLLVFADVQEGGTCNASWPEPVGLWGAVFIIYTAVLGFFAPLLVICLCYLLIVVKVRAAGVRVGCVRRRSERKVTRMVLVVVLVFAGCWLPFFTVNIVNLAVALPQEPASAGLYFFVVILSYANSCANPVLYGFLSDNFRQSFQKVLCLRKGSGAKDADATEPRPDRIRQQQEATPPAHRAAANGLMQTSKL
T2 sequence (P32745 whole entry): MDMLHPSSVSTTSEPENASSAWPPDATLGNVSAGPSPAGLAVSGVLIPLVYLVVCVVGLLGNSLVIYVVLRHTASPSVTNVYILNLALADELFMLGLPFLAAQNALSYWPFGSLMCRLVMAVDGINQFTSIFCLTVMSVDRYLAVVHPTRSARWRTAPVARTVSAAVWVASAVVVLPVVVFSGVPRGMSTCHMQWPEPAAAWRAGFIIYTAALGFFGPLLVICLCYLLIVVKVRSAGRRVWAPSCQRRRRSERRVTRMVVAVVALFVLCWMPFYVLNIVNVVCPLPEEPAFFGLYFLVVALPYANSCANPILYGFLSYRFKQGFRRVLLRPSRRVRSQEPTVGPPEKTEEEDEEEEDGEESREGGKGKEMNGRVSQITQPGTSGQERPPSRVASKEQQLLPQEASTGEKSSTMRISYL
T1 sequence (P30874 whole entry): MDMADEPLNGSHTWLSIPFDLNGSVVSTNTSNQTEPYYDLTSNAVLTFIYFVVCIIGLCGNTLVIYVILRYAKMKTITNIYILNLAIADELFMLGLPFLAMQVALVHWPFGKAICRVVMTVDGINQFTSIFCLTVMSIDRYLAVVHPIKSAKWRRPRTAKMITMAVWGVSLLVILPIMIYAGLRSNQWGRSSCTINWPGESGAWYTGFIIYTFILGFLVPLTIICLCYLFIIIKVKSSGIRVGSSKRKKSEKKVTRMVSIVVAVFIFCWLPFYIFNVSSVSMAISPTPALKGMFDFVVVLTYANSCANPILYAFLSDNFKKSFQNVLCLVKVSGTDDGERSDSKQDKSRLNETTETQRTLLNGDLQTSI
T3 sequence (P31391 whole entry): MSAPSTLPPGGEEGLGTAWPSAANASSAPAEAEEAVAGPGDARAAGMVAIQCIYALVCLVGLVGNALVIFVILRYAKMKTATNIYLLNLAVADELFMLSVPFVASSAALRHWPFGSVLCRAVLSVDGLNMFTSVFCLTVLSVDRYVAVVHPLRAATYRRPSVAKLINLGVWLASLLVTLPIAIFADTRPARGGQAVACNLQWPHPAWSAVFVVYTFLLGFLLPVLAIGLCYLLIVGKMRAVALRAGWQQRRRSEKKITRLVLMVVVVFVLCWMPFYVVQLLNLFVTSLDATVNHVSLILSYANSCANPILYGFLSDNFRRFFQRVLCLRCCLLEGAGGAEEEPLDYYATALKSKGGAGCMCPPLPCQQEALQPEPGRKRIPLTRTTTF

| SMILES | Ki (hsst2) [nM] | Ki (hsst3) [nM] | Ki (hsst4) [nM] | Ki (hsst5) [nM] |
| --- | --- | --- | --- | --- |
| C[C@@H](O)[C@@H]1NC(=O)[C@H](CCCCN)NC(=O)[C@@H](Cc2c[nH]c3ccccc23)NC(=O)[C@H](Cc2cccnc2)NC(=O)[C@H](NC(=O)[C@@H](N)Cc2ccc(Cl)cc2)CSSC[C@@H](C(=O)N[C@@H](Cc2ccc3ccccc3c2)C(N)=O)NC1=O [Peptide 9, Cpa-cyclo(DCys-3-Pal-DTrp-Lys-Thr-Cys)-Nal-NH2] | 12.1 ± 1.9 | 38.2 ± 2.4 | 1000 | – |
| C[C@@H](O)[C@@H]1NC(=O)[C@H](CCCCN)N(C)C(=O)[C@@H](Cc2c[nH]c3ccccc23)NC(=O)[C@H](Cc2cccnc2)NC(=O)[C@H](NC(=O)[C@@H](N)Cc2ccc(Cl)cc2)CSSC[C@@H](C(=O)N[C@H](Cc2c[nH]c3ccccc23)C(N)=O)NC1=O [Peptide 14, Cpa-cyclo(DCys-3-Pal-DTrp-NMeLys-Thr-Cys)-DTrp-NH2] (H-[Phe(4-Cl)][dC][3Pal][dW][NMeK]TC[dW]-NH2; disulfide 2-7) | 5.45 ± 0.3 | 91.4 ± 11.9 | – | – |
| C[C@@H](O)[C@@H]1NC(=O)[C@H](CCCCN)N(C)C(=O)[C@@H](Cc2c[nH]c3ccccc23)NC(=O)[C@H](Cc2cccnc2)NC(=O)[C@H](NC(=O)[C@@H](N)Cc2cccnc2)CSSC[C@@H](C(=O)N[C@H](Cc2c[nH]c3ccccc23)C(N)=O)NC1=O [Peptide 16, 3-Pal-cyclo(DCys-3-Pal-DTrp-NMeLys-Thr-Cys)-DTrp-NH2] (H-[3Pal][dC][3Pal][dW][NMeK]TC[dW]-NH2; disulfide 2-7) | 24.7 ± 1.61 | 537 ± 44.8 | – | 313 ± 4.1 |
| C[C@@H](O)[C@@H]1NC(=O)[C@H](CCCCN)N(C)C(=O)[C@@H](Cc2c[nH]c3ccccc23)NC(=O)[C@H](Cc2cccnc2)NC(=O)[C@H](NC(=O)[C@@H](N)Cc2ccc(Cl)cc2)CSSC[C@@H](C(=O)N[C@@H](Cc2ccc3ccccc3c2)C(N)=O)NC1=O [Peptide 5, Cpa-cyclo(DCys-3-Pal-DTrp-NMeLys-Thr-Cys)-2-Nal-NH2] (H-[Phe(4-Cl)][dC][3Pal][dW][NMeK]TC[2Nal]-NH2; disulfide 2-7) | 17.1 ± 5.5 | 66 ± 5.8 | – | 5.98 ± 0.91 |
| C[C@@H](O)[C@@H]1NC(=O)[C@H](CCCCN)NC(=O)[C@@H](Cc2c[nH]c3ccccc23)NC(=O)[C@H](Cc2cccnc2)NC(=O)[C@H](NC(=O)[C@@H](N)Cc2ccc(Cl)cc2)CSSC[C@@H](C(=O)N[C@@H](Cc2ccc3ccccc3c2)C(N)=O)N(C)C1=O [Peptide 7, Cpa-cyclo(DCys-3-Pal-DTrp-Lys-Thr-NmeCys)-2-Nal-NH2] (H-[Phe(4-Cl)][dC][3Pal][dW]KT[NMeC][2Nal]-NH2; disulfide 2-7) | 810 | 68.7 ± 4.7 | 575 | – |
| C[C@@H](O)[C@@H]1NC(=O)[C@H](CCCCN)NC(=O)[C@@H](Cc2c[nH]c3ccccc23)N(C)C(=O)[C@H](Cc2cccnc2)NC(=O)[C@H](NC(=O)[C@@H](N)Cc2ccc(Cl)cc2)CSSC[C@@H](C(=O)N[C@@H](Cc2ccc3ccccc3c2)C(N)=O)NC1=O [Peptide 4, Cpa-cyclo(DCys-3-Pal-NMeDTrp-Lys-Thr-Cys)-2-Nal-NH2] (H-[Phe(4-Cl)][dC][3Pal][dNMeW]KTC[2Nal]-NH2; disulfide 2-7) | 51.8 ± 2.6 | 390 ± 114 | – | 93 ± 17.7 |
| C[C@@H](O)[C@@H]1NC(=O)[C@H](CCCCN)NC(=O)[C@@H](Cc2c[nH]c3ccccc23)NC(=O)[C@H](Cc2cccnc2)N(C)C(=O)[C@H](NC(=O)[C@@H](N)Cc2ccc(Cl)cc2)CSSC[C@@H](C(=O)N[C@@H](Cc2ccc3ccccc3c2)C(N)=O)NC1=O [Peptide 3, Cpa-cyclo(DCys-Nme3-Pal-DTrp-Lys-Thr-Cys)-2-Nal-NH2] | 189 ± 35 | 450 ± 132 | – | – |
